According to paper PMC9898036, “VIP152 is a selective CDK9 inhibitor with pre-clinical in vitro and in vivo efficacy in chronic lymphocytic leukemia” (Leukemia, 2022):
Like-named read-outs stand apart in the source and are kept apart here.

Experiments:
Assay in all cases: DiscoverX KINOMEscan kinase profiling (468 assays)
Format in all cases: binding
human kinome [1] = target: human kinome (Homo sapiens, UniProt Q04771); details: ACVR1; 100 nM; read-out: Percent Control
Protocol: (§1) Kinomescan Kinase Profiling Assay
(§2) Kinomescan Assay was performed at DiscoverRX and described in Fabian, et al. 2005, Nat.
(§3) Biotechnol. In brief, kinases were produced and subsequently tagged with DNA for qPCR detection.
(§4) Streptavidin-coated magnetic beads were bound to biotinylated kinase ligands to serve as a solid support.
(§5) VIP152 was dissolved in DMSO and tested across a 10 serial threefold dilution set and compared to a test
(§6) compound and a DMSO control.
(§7) Kinome map was produced via TreeSpot
(§8) Analysis from DiscoverRX. […]

human kinome [2] = target: human kinome (Homo sapiens, UniProt Q9Y463); details: DYRK1B; 100 nM; read-out: Percent Control
Protocol: as §1, §2, §3, §4, §5, §6, §7, §8

human kinome [3] = target: human kinome (Homo sapiens, UniProt P27361); details: ERK1 (Entrez MAPK3); 100 nM; read-out: Percent Control
Protocol: as §1, §2, §3, §4, §5, §6, §7, §8

human kinome [4] = target: human kinome (Homo sapiens, UniProt P10721); details: 100 nM, read-out: Percent Control
Protocol: as §1, §2, §3, §4, §5, §6, §7, §8

human kinome [5] = target: human kinome (Homo sapiens, UniProt Q9UBF8); details: read-out: Percent Control
Protocol: as §1, §2, §3, §4, §5, §6, §7, §8

human kinome [6] = target: human kinome (Homo sapiens, UniProt Q86YV6); details: read-out: Percent Control
Protocol: as §1, §2, §3, §4, §5, §6, §7, §8

human kinome [7] = target: human kinome (Homo sapiens, UniProt P22607); details: FGFR3; 100 nM; read-out: Percent Control
Protocol: as §1, §2, §3, §4, §5, §6, §7, §8

human kinome [8] = target: human kinome (Homo sapiens, UniProt O15197); details: EPHB6; 100 nM; read-out: Percent Control
Protocol: as §1, §2, §3, §4, §5, §6, §7, §8

human kinome [9] = target: human kinome (Homo sapiens, UniProt P08631); details: HCK; 100 nM; read-out: Percent Control
Protocol: as §1, §2, §3, §4, §5, §6, §7, §8

human kinome [10] = target: human kinome (Homo sapiens, UniProt P53671); details: LIMK2; 100 nM; read-out: Percent Control
Protocol: as §1, §2, §3, §4, §5, §6, §7, §8

human kinome [11] = target: human kinome (Homo sapiens, UniProt Q8NEB9); details: kinase VPS34 (Entrez PIK3C3); compound concentration 1000 nM; read-out: Percent Control
Protocol: as §1, §2, §3, §4, §5, §6, §7, §8

human kinome [12] = target: human kinome (Homo sapiens, UniProt Q99755); details: read-out: Percent Control
Protocol: as §1, §2, §3, §4, §5, §6, §7, §8

human kinome [13] = target: human kinome (Homo sapiens, UniProt P49760); details: CLK2; 100 nM; read-out: Percent Control
Protocol: as §1, §2, §3, §4, §5, §6, §7, §8

human kinome [14] = target: human kinome (Homo sapiens, UniProt P36894); details: BMPR1A; 100 nM; read-out: Percent Control
Protocol: as §1, §2, §3, §4, §5, §6, §7, §8

human kinome [15] = target: human kinome (Homo sapiens, UniProt Q9Y5S2); details: MRCKB (Entrez CDC42BPB); 100 nM; read-out: Percent Control
Protocol: as §1, §2, §3, §4, §5, §6, §7, §8

human kinome [16] = target: human kinome (Homo sapiens, UniProt Q15418); details: compound concentration 1000 nM, read-out: Percent Control
Protocol: as §1, §2, §3, §4, §5, §6, §7, §8

human kinome [17] = target: human kinome (Homo sapiens, UniProt P00533, T790M); details: EGFR(T790M); 100 nM; read-out: Percent Control
Protocol: as §1, §2, §3, §4, §5, §6, §7, §8

human kinome [18] = target: human kinome (Homo sapiens, UniProt P08581); details: MET; 100 nM; read-out: Percent Control
Protocol: as §1, §2, §3, §4, §5, §6, §7, §8

human kinome [19] = target: human kinome (Homo sapiens, UniProt Q9NY57); details: kinase YANK2 (Entrez STK32B); compound concentration 1000 nM; read-out: Percent Control
Protocol: as §1, §2, §3, §4, §5, §6, §7, §8

human kinome [20] = target: human kinome (Homo sapiens, UniProt Q15831); details: LKB1 (Entrez STK11); 100 nM; read-out: Percent Control
Protocol: as §1, §2, §3, §4, §5, §6, §7, §8

human kinome [21] = target: human kinome (Homo sapiens, UniProt P08922); details: kinase ROS1 (Entrez ROS1); compound concentration 1000 nM; read-out: Percent Control
Protocol: as §1, §2, §3, §4, §5, §6, §7, §8

human kinome [22] = target: human kinome (Homo sapiens, UniProt Q86Z02); details: HIPK1; 100 nM; read-out: Percent Control
Protocol: as §1, §2, §3, §4, §5, §6, §7, §8

human kinome [23] = target: human kinome (Homo sapiens, UniProt Q9Y6M4); details: CSNK1G3; 100 nM; read-out: Percent Control
Protocol: as §1, §2, §3, §4, §5, §6, §7, §8

human kinome [24] = target: human kinome (Homo sapiens, UniProt Q9H4A3); details: kinase WNK1 (Entrez WNK1); compound concentration 1000 nM; read-out: Percent Control
Protocol: as §1, §2, §3, §4, §5, §6, §7, §8

human kinome [25] = target: human kinome (Homo sapiens, UniProt P42336, I800L); details: read-out: Percent Control
Protocol: as §1, §2, §3, §4, §5, §6, §7, §8

human kinome [26] = target: human kinome (Homo sapiens, UniProt P21127); details: CDC2L1 (Entrez CDK11B); 100 nM; read-out: Percent Control
Protocol: as §1, §2, §3, §4, §5, §6, §7, §8

human kinome [27] = target: human kinome (Homo sapiens, UniProt P35590); details: kinase TIE1 (Entrez TIE1); compound concentration 1000 nM; read-out: Percent Control
Protocol: as §1, §2, §3, §4, §5, §6, §7, §8

human kinome [28] = target: human kinome (Homo sapiens, UniProt P10721, D816V); details: KIT(D816V); 100 nM; read-out: Percent Control
Protocol: as §1, §2, §3, §4, §5, §6, §7, §8

human kinome [29] = target: human kinome (Homo sapiens, UniProt Q86UX6); details: kinase YANK3 (Entrez STK32C); compound concentration 1000 nM; read-out: Percent Control
Protocol: as §1, §2, §3, §4, §5, §6, §7, §8

human kinome [30] = target: human kinome (Homo sapiens, UniProt P24941); details: CDK2; 100 nM; read-out: Percent Control
Protocol: as §1, §2, §3, §4, §5, §6, §7, §8

Chain of human kinome (Homo sapiens, UniProt Q99755) (Q99755 whole entry): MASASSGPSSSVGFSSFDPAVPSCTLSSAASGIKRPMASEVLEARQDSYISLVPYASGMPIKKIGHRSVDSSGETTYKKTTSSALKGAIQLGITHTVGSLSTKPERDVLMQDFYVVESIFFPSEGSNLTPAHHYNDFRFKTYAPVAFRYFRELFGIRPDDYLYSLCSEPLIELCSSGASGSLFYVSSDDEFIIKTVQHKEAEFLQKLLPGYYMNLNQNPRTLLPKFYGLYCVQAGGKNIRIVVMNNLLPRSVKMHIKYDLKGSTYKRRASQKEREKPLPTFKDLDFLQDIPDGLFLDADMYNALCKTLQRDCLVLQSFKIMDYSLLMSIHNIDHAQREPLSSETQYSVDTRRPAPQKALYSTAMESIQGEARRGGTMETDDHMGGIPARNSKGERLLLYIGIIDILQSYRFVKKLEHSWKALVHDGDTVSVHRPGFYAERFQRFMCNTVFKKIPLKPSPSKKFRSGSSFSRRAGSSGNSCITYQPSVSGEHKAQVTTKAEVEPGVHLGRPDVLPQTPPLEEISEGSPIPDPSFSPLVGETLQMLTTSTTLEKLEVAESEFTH
Chain of human kinome (Homo sapiens, UniProt P10721) (P10721 26-976): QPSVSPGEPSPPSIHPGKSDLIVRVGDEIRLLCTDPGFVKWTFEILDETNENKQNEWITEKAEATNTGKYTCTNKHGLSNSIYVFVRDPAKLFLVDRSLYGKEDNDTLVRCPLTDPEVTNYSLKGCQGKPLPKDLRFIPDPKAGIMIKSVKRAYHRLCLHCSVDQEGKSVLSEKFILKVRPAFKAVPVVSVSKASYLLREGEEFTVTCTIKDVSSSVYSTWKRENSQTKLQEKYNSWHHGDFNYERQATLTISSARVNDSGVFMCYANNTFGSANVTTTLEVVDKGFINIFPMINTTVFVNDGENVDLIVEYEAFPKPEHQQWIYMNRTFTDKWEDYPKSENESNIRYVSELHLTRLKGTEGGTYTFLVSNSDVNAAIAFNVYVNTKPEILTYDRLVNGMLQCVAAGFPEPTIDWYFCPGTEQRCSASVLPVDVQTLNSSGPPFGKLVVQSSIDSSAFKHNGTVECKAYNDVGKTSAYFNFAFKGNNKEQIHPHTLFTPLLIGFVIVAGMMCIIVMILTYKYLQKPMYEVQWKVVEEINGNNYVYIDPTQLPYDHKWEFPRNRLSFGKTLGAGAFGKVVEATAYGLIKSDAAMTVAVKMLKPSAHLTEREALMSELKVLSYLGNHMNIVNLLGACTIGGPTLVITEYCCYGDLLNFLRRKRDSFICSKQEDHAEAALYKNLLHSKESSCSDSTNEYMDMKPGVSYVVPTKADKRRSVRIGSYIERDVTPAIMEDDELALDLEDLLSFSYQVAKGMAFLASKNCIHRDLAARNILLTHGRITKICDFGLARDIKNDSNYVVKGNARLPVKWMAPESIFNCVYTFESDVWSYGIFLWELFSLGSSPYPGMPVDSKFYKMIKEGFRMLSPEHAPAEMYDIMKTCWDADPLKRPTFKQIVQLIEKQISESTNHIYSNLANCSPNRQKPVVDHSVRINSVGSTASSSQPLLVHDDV
Chain of human kinome (Homo sapiens, UniProt Q9UBF8) (Q9UBF8 whole entry): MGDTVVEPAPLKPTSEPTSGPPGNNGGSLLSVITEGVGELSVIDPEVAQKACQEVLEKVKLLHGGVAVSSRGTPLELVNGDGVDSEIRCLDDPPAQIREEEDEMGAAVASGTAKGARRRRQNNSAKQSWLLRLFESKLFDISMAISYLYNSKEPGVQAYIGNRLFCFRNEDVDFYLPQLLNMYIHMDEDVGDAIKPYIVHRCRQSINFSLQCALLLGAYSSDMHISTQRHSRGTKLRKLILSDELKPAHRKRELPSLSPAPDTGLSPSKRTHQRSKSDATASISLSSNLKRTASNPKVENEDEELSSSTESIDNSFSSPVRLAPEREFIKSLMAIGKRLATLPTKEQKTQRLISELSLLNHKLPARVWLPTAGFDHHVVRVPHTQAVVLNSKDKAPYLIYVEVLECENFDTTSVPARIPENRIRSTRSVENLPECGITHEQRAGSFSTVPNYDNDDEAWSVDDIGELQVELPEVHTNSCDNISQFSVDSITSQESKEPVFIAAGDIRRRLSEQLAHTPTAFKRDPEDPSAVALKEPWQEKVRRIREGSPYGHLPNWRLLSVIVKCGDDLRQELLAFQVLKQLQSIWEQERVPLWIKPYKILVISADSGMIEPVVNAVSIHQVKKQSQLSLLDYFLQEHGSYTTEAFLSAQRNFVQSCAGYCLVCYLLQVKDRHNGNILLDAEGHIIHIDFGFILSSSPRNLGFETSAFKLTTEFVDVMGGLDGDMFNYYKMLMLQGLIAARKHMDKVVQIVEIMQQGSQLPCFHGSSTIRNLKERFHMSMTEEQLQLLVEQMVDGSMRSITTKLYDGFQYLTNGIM
Chain of human kinome (Homo sapiens, UniProt Q86YV6) (Q86YV6 whole entry): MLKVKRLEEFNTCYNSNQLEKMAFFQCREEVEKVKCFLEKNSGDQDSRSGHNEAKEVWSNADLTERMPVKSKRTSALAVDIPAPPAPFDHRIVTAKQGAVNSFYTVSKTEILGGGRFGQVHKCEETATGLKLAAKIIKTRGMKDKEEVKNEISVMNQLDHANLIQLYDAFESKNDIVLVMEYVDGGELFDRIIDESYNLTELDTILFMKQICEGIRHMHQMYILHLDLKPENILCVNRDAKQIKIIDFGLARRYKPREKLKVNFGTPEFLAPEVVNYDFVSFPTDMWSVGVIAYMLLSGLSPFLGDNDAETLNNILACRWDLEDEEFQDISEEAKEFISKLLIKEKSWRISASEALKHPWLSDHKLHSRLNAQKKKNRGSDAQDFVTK
Chain of human kinome (Homo sapiens, UniProt P42336, I800L) (P42336 whole entry I800L): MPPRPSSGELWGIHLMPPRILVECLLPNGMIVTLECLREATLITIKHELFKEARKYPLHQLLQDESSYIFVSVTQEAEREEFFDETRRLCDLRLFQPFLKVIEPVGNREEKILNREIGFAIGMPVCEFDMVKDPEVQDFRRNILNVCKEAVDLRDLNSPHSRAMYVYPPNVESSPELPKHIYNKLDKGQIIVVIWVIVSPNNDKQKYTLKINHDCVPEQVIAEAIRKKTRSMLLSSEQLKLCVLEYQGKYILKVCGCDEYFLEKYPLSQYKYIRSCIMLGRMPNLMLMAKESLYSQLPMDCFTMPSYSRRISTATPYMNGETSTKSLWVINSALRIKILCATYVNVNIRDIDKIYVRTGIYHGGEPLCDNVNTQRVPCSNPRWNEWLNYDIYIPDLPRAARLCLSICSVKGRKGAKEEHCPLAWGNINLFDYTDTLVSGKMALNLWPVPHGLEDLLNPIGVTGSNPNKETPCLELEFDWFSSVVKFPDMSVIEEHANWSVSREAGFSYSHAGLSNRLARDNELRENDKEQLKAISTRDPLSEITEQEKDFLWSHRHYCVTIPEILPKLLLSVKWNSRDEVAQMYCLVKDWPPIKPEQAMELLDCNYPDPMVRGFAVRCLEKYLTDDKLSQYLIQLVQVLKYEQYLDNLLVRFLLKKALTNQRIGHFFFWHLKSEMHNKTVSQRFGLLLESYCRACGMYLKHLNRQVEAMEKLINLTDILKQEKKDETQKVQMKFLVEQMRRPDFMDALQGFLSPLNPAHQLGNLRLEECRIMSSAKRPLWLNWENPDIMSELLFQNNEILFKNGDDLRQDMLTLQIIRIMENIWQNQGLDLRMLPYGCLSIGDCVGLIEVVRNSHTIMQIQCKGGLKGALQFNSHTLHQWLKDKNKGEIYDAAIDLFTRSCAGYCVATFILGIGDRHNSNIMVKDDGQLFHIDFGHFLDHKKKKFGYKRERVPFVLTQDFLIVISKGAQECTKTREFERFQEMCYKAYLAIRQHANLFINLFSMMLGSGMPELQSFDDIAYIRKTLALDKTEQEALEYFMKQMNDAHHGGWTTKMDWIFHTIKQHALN
Chain of human kinome (Homo sapiens, UniProt Q15418) (Q15418 whole entry): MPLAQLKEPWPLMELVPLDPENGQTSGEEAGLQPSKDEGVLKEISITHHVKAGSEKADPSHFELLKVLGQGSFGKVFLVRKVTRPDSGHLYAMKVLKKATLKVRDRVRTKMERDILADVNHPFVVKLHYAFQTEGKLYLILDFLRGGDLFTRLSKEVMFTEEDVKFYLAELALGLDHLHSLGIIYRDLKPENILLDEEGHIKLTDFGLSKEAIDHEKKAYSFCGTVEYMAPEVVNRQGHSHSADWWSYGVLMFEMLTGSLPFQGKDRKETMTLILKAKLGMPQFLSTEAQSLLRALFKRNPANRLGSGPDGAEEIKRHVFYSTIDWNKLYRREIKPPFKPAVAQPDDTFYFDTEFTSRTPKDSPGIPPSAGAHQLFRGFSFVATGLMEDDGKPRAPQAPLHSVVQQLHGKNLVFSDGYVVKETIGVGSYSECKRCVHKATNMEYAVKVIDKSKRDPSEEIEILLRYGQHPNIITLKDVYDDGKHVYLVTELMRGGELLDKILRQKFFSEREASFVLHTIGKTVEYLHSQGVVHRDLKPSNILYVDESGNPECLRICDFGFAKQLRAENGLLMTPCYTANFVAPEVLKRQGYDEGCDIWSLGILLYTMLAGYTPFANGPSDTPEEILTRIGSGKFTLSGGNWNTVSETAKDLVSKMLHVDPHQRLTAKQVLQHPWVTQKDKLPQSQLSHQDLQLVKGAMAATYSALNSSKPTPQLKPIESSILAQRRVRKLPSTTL
Chain of human kinome (Homo sapiens, UniProt Q9Y6M4) (Q9Y6M4 whole entry): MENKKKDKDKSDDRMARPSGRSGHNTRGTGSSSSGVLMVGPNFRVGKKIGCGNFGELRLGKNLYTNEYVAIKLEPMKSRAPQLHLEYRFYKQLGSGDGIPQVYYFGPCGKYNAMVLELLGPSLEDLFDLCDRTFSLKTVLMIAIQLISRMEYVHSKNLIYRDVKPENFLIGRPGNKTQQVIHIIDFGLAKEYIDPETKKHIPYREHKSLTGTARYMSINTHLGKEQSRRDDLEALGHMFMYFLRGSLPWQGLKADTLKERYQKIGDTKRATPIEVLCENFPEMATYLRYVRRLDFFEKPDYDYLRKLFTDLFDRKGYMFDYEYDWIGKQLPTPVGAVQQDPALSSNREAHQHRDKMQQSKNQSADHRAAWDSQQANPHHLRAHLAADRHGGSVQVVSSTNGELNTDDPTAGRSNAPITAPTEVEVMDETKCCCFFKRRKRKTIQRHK
Chain of human kinome (Homo sapiens, UniProt P10721, D816V) (P10721 26-976 D816V): as the sequence (P10721 26-976) above, with D791V counted along it

Compound: COc1cc(F)ccc1-c1cc(Nc2cc(CS(C)(=N)=O)ccn2)ncc1F (stereo not drawn) [VIP152]
- remaining binding at 0.1 µM (human kinome [1]): 100%
- remaining binding at 0.1 µM (human kinome [2]): 100%
- remaining binding at 0.1 µM (human kinome [3]): 100%
- remaining binding at 0.1 µM (human kinome [4]; KIT-autoinhibited): 98%
- remaining binding at 0.1 µM (human kinome [4]; KIT): 100%
- remaining binding at 0.1 µM (human kinome [5]; PIK4CB (Entrez PI4KB), 100 nM): 100%
- remaining binding at 1 µM (human kinome [5]; kinase PIK4CB (Entrez PI4KB), compound concentration 1000 nM): 95%
- remaining binding at 0.1 µM (human kinome [6]; MYLK4, 100 nM): 100%
- remaining binding at 1 µM (human kinome [6]; kinase MYLK4 (Entrez MYLK4), compound concentration 1000 nM): 89%
- remaining binding at 0.1 µM (human kinome [7]): 100%
- remaining binding at 0.1 µM (human kinome [8]): 87%
- remaining binding at 0.1 µM (human kinome [9]): 97%
- remaining binding at 0.1 µM (human kinome [10]): 100%
- remaining binding at 1 µM (human kinome [11]): 100%
- remaining binding at 0.1 µM (human kinome [12]; PIP5K1A, 100 nM): 90%
- remaining binding at 1 µM (human kinome [12]; kinase PIP5K1A (Entrez PIP5K1A), compound concentration 1000 nM): 18%
- remaining binding at 0.1 µM (human kinome [13]): 61%
- remaining binding at 0.1 µM (human kinome [14]): 100%
- remaining binding at 0.1 µM (human kinome [15]): 100%
- remaining binding at 1 µM (human kinome [16]; kinase RSK1(Kin.Dom.1-N-terminal) (Entrez RPS6KA1)): 95%
- remaining binding at 1 µM (human kinome [16]; kinase RSK1(Kin.Dom.2-C-terminal) (Entrez RPS6KA1)): 89%
- remaining binding at 0.1 µM (human kinome [17]): 100%
- remaining binding at 0.1 µM (human kinome [18]): 57%
- remaining binding at 1 µM (human kinome [19]): 98%
- remaining binding at 0.1 µM (human kinome [20]): 100%
- remaining binding at 1 µM (human kinome [21]): 80%
- remaining binding at 0.1 µM (human kinome [22]): 63%
- remaining binding at 0.1 µM (human kinome [23]): 98%
- remaining binding at 1 µM (human kinome [24]): 90%
- remaining binding at 0.1 µM (human kinome [25]; PIK3CA(I800L), 100 nM): 100%
- remaining binding at 1 µM (human kinome [25]; kinase PIK3CA(I800L) (Entrez PIK3CA), compound concentration 1000 nM): 98%
- remaining binding at 0.1 µM (human kinome [26]): 100%
- remaining binding at 1 µM (human kinome [27]): 76%
- remaining binding at 0.1 µM (human kinome [28]): 100%
- remaining binding at 1 µM (human kinome [29]): 95%
- remaining binding at 0.1 µM (human kinome [30]): 100%
